The values that follow come from ChEMBL document CHEMBL1201862, “PubChem BioAssay data set” (2004).

Some test systems named below: CAKI-1; SNB-19; SF-539; TK-10; HOP-92; NCI-H23; Malme-3M; OVCAR-5; LOX IMVI; SR; NCI-H460; HCC 2998; MOLT-4; UO-31; SK-MEL-28; UACC-62; PC-3; DU-145; Hs-578T; SNB-75.
Assay in all cases: NCI anticancer screen, dose series, 48 h

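Cells were grown in 96-well plates and exposed to each compound for 48 hours at five concentrations; endpoints were interpolated linearly between bracketing concentrations, or set to the highest concentration if not reached. Abbreviation: GI50, concentration required for 50% inhibition of growth.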 The source made the active and inactive calls. Cut-off read from the data, not from the text of the source: active = GI50 up to about 1.1 µM and inactive = higher. Some results are limits rather than exact numbers.

For the compound `CN(Cc1cc(Br)cc(Br)c1O)Cc1c(O)ccc2ccccc12`, the GI50 with CAKI-1 is 16.1 µM (inactive); in the test with SNB-19 it was 17.2 µM (inactive); in the test with SF-539 it was 16.1 µM (inactive); with TK-10 it was 17.4 µM (inactive); with HOP-92 it was 19.1 µM (inactive); in the test with NCI-H23 it was 22.6 µM (inactive). Also, the GI50 was 21.7 µM (inactive) with Malme-3M; 17.6 µM (inactive) in the test on OVCAR-5; 19.8 µM (inactive) with LOX IMVI; 20.6 µM (inactive) with SR; 19.1 µM (inactive) in the test on NCI-H460; 17.1 µM (inactive) in the test on HCC 2998. Moreover, the GI50 is 10.4 µM (inactive) with MOLT-4; 14.9 µM (inactive) in the test with UO-31; 20 µM (inactive) with SK-MEL-28; 19.7 µM (inactive) with UACC-62; 16.3 µM (inactive) in the test on PC-3; 21.1 µM (inactive) in the test on DU-145. Also, the GI50 in the test on Hs-578T is 33.1 µM (inactive); in the test with SNB-75 it was 19.1 µM (inactive).
Turning to `c1cc(CSc2ncnc3[nH]cnc23)ccn1`, the GI50 in the test on CAKI-1 is > 100 µM (inactive); in the test on SNB-19 it was > 100 µM (inactive); in the test with SF-539, 24.5 µM (inactive); with TK-10, 59.8 µM (inactive); in the test on HOP-92, > 100 µM (inactive); in the test with NCI-H23, > 100 µM (inactive). Further, the GI50 was > 100 µM (inactive) in the test on Malme-3M; > 100 µM (inactive) with OVCAR-5; 28.2 µM (inactive) in the test on LOX IMVI; 34.4 µM (inactive) in the test with SR; > 100 µM (inactive) with NCI-H460; 92.5 µM (inactive) with HCC 2998. For the same compound, the GI50 was 34.7 µM (inactive) in the test with MOLT-4; 57.8 µM (inactive) in the test on UO-31; > 100 µM (inactive) in the test on SK-MEL-28; 37.4 µM (inactive) in the test with UACC-62; > 100 µM (inactive) with PC-3; 65.3 µM (inactive) in the test with DU-145. The GI50 in the test on Hs-578T and in the test on SNB-75 was > 100 µM (inactive) each time.
For `C=CC(C)CCC(C/C=C(\C)CCC=C(C)C)C(=C)CCCC(C)C` (stereo not given), the GI50 in the test with CAKI-1, in the test with SNB-19, in the test with SF-539, in the test on TK-10, in the test with HOP-92 and in the test on NCI-H23 was > 100 µM (inactive) each time. Further, the GI50 in the test with Malme-3M, in the test on OVCAR-5, in the test on LOX IMVI, in the test with SR, with NCI-H460 and with HCC 2998 was > 100 µM (inactive) each time. Moreover, the GI50 with MOLT-4, in the test on UO-31, with SK-MEL-28, with UACC-62, with PC-3 and with DU-145 was > 100 µM (inactive) each time. The GI50 with Hs-578T and with SNB-75 was > 100 µM (inactive) in each case.
As for `CN1C(=O)C(CC(=O)O)NC1=S` (stereo not given), the GI50 in the test with CAKI-1, with SNB-19, in the test on SF-539, in the test with TK-10, with HOP-92 and with NCI-H23 was > 100 µM (inactive) throughout. Also, the GI50 in the test with Malme-3M, in the test on OVCAR-5, in the test with LOX IMVI, with SR, in the test with NCI-H460 and with HCC 2998 was > 100 µM (inactive) each time. The GI50 with MOLT-4, in the test on UO-31, in the test on SK-MEL-28, in the test with UACC-62, with PC-3 and in the test with DU-145 was > 100 µM (inactive) each time. Also, the GI50 with Hs-578T and in the test with SNB-75 was > 100 µM (inactive) each time.
As to `COc1cc(Br)cc2cc(-c3cn4ccsc4n3)c(=O)oc12`, the GI50 in the test with CAKI-1 is 35 µM (inactive); in the test with SNB-19, 30.4 µM (inactive); in the test on SF-539, 36.2 µM (inactive); in the test with TK-10, 64.7 µM (inactive); in the test with HOP-92 it was 11.1 µM (inactive); in the test on NCI-H23 it was 39.1 µM (inactive). Also, the GI50 in the test on Malme-3M is 91.2 µM (inactive); with OVCAR-5 it was 68.1 µM (inactive); in the test with LOX IMVI, 49.4 µM (inactive); in the test with SR, 25.9 µM (inactive); in the test on NCI-H460 it was 32 µM (inactive); with HCC 2998, 7.24 µM (inactive). Also, the GI50 with MOLT-4 was 32 µM (inactive); in the test with UO-31 it was 23.8 µM (inactive); in the test with SK-MEL-28, 46.2 µM (inactive); with UACC-62 it was 22.2 µM (inactive); with PC-3, 25.2 µM (inactive); with DU-145 it was 30.5 µM (inactive). The GI50 in the test on Hs-578T was 41.5 µM (inactive); with SNB-75, 32.1 µM (inactive).
Regarding `N#Cc1nc(-c2ccccn2)c(-c2ccccn2)nc1C#N`, the GI50 with CAKI-1 was 2.04 µM (inactive); with SNB-19 it was 4.1 µM (inactive); in the test with SF-539 it was 4.19 µM (inactive); in the test with TK-10, 1.82 µM (inactive); in the test with HOP-92, 7.96 µM (inactive); with NCI-H23, 2.9 µM (inactive). The GI50 in the test with Malme-3M is 1.45 µM (inactive); with OVCAR-5 it was 3.32 µM (inactive); with LOX IMVI, 1.03 µM (active); with SR, 1.82 µM (inactive); in the test with NCI-H460 it was 0.47 µM (active); with HCC 2998, 3.66 µM (inactive). For the same compound, the GI50 with MOLT-4 is 4.19 µM (inactive); with UO-31, 1.3 µM (inactive); in the test with SK-MEL-28 it was 3.96 µM (inactive); in the test with UACC-62, 0.47 µM (active); in the test on PC-3 it was 4.88 µM (inactive); with DU-145, 2.32 µM (inactive). For the same compound, the GI50 in the test with Hs-578T was 11.2 µM (inactive); with SNB-75, 8.05 µM (inactive).
`Nc1nc(Cl)c(N)c(NCC2(CO)CC(OCc3ccccc3)C2)n1` (stereo not given): the GI50 is > 100 µM (inactive) in the test on CAKI-1; > 100 µM (inactive) in the test with SNB-19; > 100 µM (inactive) in the test on SF-539; 44 µM (inactive) with TK-10; > 100 µM (inactive) in the test on HOP-92; 4.17 µM (inactive) with NCI-H23. Moreover, the GI50 in the test on Malme-3M is > 100 µM (inactive); in the test with OVCAR-5 it was > 100 µM (inactive); with LOX IMVI it was 9.35 µM (inactive); in the test with SR, 6.5 µM (inactive); in the test with NCI-H460, > 100 µM (inactive); with HCC 2998, 82 µM (inactive). Also, the GI50 with MOLT-4, in the test with UO-31, in the test with SK-MEL-28, in the test on UACC-62, in the test on PC-3 and with DU-145 was > 100 µM (inactive) each time. Moreover, the GI50 in the test with Hs-578T is > 100 µM (inactive); in the test on SNB-75, 70 µM (inactive).
For `O=C1O/C(=C(/Cl)c2c3ccccc3cc3ccccc23)c2ccccc21`, the GI50 in the test on CAKI-1 was 33.4 µM (inactive); in the test on SNB-19, 20.3 µM (inactive); in the test with SF-539, 23.6 µM (inactive); in the test on TK-10, 32.8 µM (inactive); with HOP-92, 21.8 µM (inactive); in the test with NCI-H23, 26.1 µM (inactive). Moreover, the GI50 with Malme-3M is 48.1 µM (inactive); with OVCAR-5, 33.2 µM (inactive); in the test on LOX IMVI, 3.33 µM (inactive); with SR, 4.58 µM (inactive); in the test on NCI-H460, 26.5 µM (inactive); with HCC 2998, 30.9 µM (inactive). In addition, the GI50 in the test on MOLT-4 is 7.53 µM (inactive); in the test with UO-31, 44.2 µM (inactive); with SK-MEL-28, 40.7 µM (inactive); with UACC-62, 28.6 µM (inactive); in the test with PC-3 it was 24.8 µM (inactive); in the test on DU-145 it was 45.4 µM (inactive). For the same compound, the GI50 in the test on Hs-578T is 23 µM (inactive); with SNB-75, 4.75 µM (inactive).
As to `O=c1[nH]nc(Cc2ccccc2)n1C1CC1`, the GI50 with CAKI-1, with SNB-19, with SF-539, in the test on TK-10, in the test on HOP-92 and in the test with NCI-H23 was > 100 µM (inactive) in each case. In addition, the GI50 with Malme-3M, in the test on OVCAR-5, with LOX IMVI, in the test with SR, in the test on NCI-H460 and in the test on HCC 2998 was > 100 µM (inactive) each time. Besides, the GI50 was > 100 µM (inactive) with MOLT-4; 61.7 µM (inactive) with UO-31; > 100 µM (inactive) in the test with SK-MEL-28; > 100 µM (inactive) in the test with UACC-62; > 100 µM (inactive) in the test on PC-3; > 100 µM (inactive) with DU-145. The GI50 with Hs-578T and in the test on SNB-75 was > 100 µM (inactive) throughout.
`Cn1c2ccccc2c(=NNc2ccccc2C(=O)O)c2ccccc21`: the GI50 was 23.3 µM (inactive) in the test with CAKI-1; 24.4 µM (inactive) in the test on SNB-19; 13.1 µM (inactive) in the test with SF-539; 32.1 µM (inactive) with TK-10; 21.7 µM (inactive) with HOP-92; 20.9 µM (inactive) with NCI-H23. In addition, the GI50 was 20.4 µM (inactive) in the test on Malme-3M; 30.3 µM (inactive) with OVCAR-5; 11.8 µM (inactive) in the test on LOX IMVI; 11.9 µM (inactive) in the test with SR; 13.2 µM (inactive) in the test with NCI-H460; 19.7 µM (inactive) in the test on HCC 2998. Further, the GI50 with MOLT-4 is 10.9 µM (inactive); with UO-31 it was 18.4 µM (inactive); in the test on SK-MEL-28 it was 20.2 µM (inactive); in the test on UACC-62 it was 19.5 µM (inactive); in the test on PC-3 it was 12.3 µM (inactive); in the test with DU-145, 27.5 µM (inactive). The GI50 was 21.9 µM (inactive) with Hs-578T and 21.1 µM (inactive) in the test on SNB-75.
